Test: method code SF-HPLC, from DOI: 10.1248/cpb.46.274

Structure (SMILES)	logP
CC(=O)/C=C/c1ccc(O)cc1	1.86
CCOc1ccc(C=CC(C)=O)cc1	2.73
CC(=O)C=Cc1cccc(F)c1	2.25
COc1ccccc1C=CC(=O)C(F)(F)F	3.39
COc1ccc(C=CC(=O)C(F)(F)F)cc1	3.33
CC(=O)/C=C/c1cccc(C(F)(F)F)c1	3.03
CC(=O)/C=C/c1ccccc1Cl	2.85
CC(=O)/C=C/c1cccc([N+](=O)[O-])c1	1.88
O=C(C=Cc1cccc([N+](=O)[O-])c1)C(F)(F)F	2.66
COc1cccc(/C=C/C(C)=O)c1	2.27
CC(=O)/C=C/c1ccc(C(F)(F)F)cc1	3.13
CC(=O)/C=C/c1cccc(Br)c1	3.02
O=C(C=Cc1ccccc1)C(F)(F)F	3.01
N#Cc1cccc(/C=C/C(=O)C(F)(F)F)c1	2.45
N#Cc1ccc(C=CC(=O)C(F)(F)F)cc1	2.42
CC(=O)/C=C/c1ccc(N(C)C)cc1	2.66
O=C(C=Cc1ccccc1Cl)C(F)(F)F	3.5
CC(=O)/C=C/c1ccccc1C	2.6

Structure (SMILES)	logP
CC(=O)/C=C/c1cccc(C)c1	2.68
COc1cccc(C=CC(=O)C(F)(F)F)c1	3.05
CC(=O)/C=C/c1cccc(Cl)c1	2.81
COc1ccc(/C=C/C(C)=O)cc1	2.25
CC(=O)C=Cc1ccc(C#N)cc1	1.64
CCc1ccc(/C=C/C(C)=O)cc1	3.26
CC(=O)C=Cc1ccc(C)cc1	2.65
CC(=O)C=Cc1ccc(Br)cc1	3.03
O=C(C=Cc1ccc(Cl)cc1)C(F)(F)F	3.63
CC(=O)C=Cc1ccc(F)cc1	2.22
COc1ccccc1/C=C/C(C)=O	2.42
CC(=O)C=Cc1cccc(C#N)c1	1.59
CC(=O)C=Cc1ccc(OC(C)=O)cc1	1.63
CC(=O)/C=C/c1ccccc1O	2.19
CC(=O)/C=C/c1ccccc1C(F)(F)F	3.14
CC(=O)/C=C/c1ccccc1F	2.34
O=C(C=Cc1cccc(Cl)c1)C(F)(F)F	3.58
CC(=O)/C=C/c1ccc(Cl)cc1	2.8

Source: the SangsterLogP compilation
